# Data as given in US4524066A, “Process for the preparation of injectable chondroitin polysulfate” (Luitpold-Werk Chemisch-pharmazeutische Fabrik, priority 1981, dated 1985).
# Assays:
# NMRI mice = assay: Acute toxicity, NMRI mice, i.v.; format: in vivo
# Wistar rats = assay: Acute toxicity, Wistar rats, i.v.; format: in vivo
# Cats = assay: Acute toxicity, cats, i.v.; format: in vivo
# Dogs = assay: Acute toxicity, dogs, i.v.; format: in vivo
substance,measurement,setting,value
chondroitin polysulfate,LD50/7d,NMRI mice,"> 3,500 mg/kg"
same,LD50/7d,Wistar rats,"> 3,000 mg/kg"
same,LD50/7d,Cats,"> 1,000 mg/kg"
same,LD50/7d,Dogs,"> 1,000 mg/kg"
same,therapeutic benefit of daily doses,humans; daily doses of up to 500 mg,therapeutically advantageous
same,therapeutic action in humans,"humans; single dosages 20-250 mg, in particular 30-150 mg, per individual in 0.2-2.0 ml",have a therapeutic action in humans
